Test results from patent US20250170239A1, “CELLULAR REPROGRAMMING BY TARGETING THE GOLGI APPARATUS” (MUSC Foundation for Research Development, priority 2023, published 2025).

What was measured:
Pmel T cells = system: Pmel T cells
Protocol: On day 3, the cells were collected for RNA-sequencing analysis (n=3 independent samples). (FIG. 14A) Principle component analysis (PCA) of control versus H2S-treated samples. […] (FIG. 14E) Schematic of experimental design for cytokine and translation assays. (FIG. 14F) Pmel CD8+ T cells were activated for 3 days with gp100 and IL2+/−0.5 mM GYY4137. On day 3, the cells were washed and re-stimulated with gp100 for 4 hours, followed by measurement of cytokine production via FACS. (FIG. 14G) Active protein translation was assessed using Click-iT Plus OPP Alexa Fluor 647 Protein Synthesis Assay Kit (ThermoFisher) (n=3 independent samples) in Pmel T cells after re-stimulation (n=3 independent samples). (FIG. 14H) Levels of EIF2a, phosphorylated 4EBP1, and phosphorylated rS6 evaluated via FACS in Pmel T cells after re-stimulation (n=4 independent samples). (FIG. 14I) Pmel CD8+ T cells were activated for 2 days with gp100 and IL2 followed by transduction with either control lentivirus or CBS-expressing lentivirus. On day 5, the cells were washed and re-stimulated with gp100 for 4 hours. Quantification of protein translation assessed using Click-iT Plus OPP Alexa Fluor 647 Protein Synthesis Assay Kit and quantification intracellular cytokines assessed using FACS (n=3 independent samples). MFI represents mean fluorescence intensity.
Pmel T cells were re-stimulated with gp100 peptide (0.1 μg/mL) and Click-iT™ Plus OPP Alexa Fluor™ 647 Protein Synthesis Assay Kit (ThermoFisher Scientific #C10458) was used to measure protein translation using flow cytometry following the manufacturer's protocol.

Tet = settings: CD8+ T cells with or without 0.5 mM GYY4137
Protocol: On day 3, the cells were collected and TET activity was assessed using nuclear protein extract from CD8+ T cells treated with or without 0.5 mM GYY4137.

Jurkat cells = settings: 50 mM H2O2 +/− GYY4137; wildtype vs C51A Prdx4
Protocol: (§1) (FIG. 22A) Pmel T cells were activated for 3 days before treatment with vehicle or 50 mM H2O2 for 6 hrs. Prdx4-Golgi colocalization was assessed by PLA using mouse anti-Giantin and rabbit anti-Prdx4 antibodies. (FIG. 22B) Activated Pmel T cells treated with vehicle or 50 mM H2O2 for 6 hrs or 24 hrs with Monensin (1 mM). PLA assay was performed using anti-Giantin and anti-Prdx4 antibodies. (FIG. 22C) Experimental design using Prdx4-targeted siRNA to silence expression of Prdx4 in Pmel T cells. (FIG. 22D) GM130 expression assessed under control versus Monensin (1 μM) conditions in T cells treated with control-siRNA or Prdx4-siRNA. (FIG. 22E) GM130 expression assessed under control versus 50 mM H2O2 conditions in T cells treated with control-siRNA or Prdx4-siRNA+/−0.5 mM GYY4137. (FIG. 22F) Protein translation assessed in Pmel T cells activated+/−GYY4137 and treated with control-siRNA or Prdx4-siRNA. (FIG. 22G) GM130 expression in Pmel T cells treated with vehicle, GYY4137, or Catalase (10 μg/mL). (FIGS. 22H and 22I) Site directed mutagenesis performed to mutate cysteine-54 of the Prdx4 gene. Prdx4-targeted shRNA was used to knock down expression of Prdx4 in Jurkat T cells, followed by transfection with plasmid containing wildtype or mutated Prdx4. (FIG. 22I) GM130 expression assessed after treatment with 50 mM H2O2+/−GYY4137. […]

[1] = system: Prdx4-Golgi colocalization; settings: 50 mM H2O2 24 hrs
Protocol: as §1

SMILES: C1COCCN1.COc1ccc(P(=S)(S)N2CCOCC2)cc1 (stereo not drawn) [GYY4137]
- phosphorylation of 4EBP1 (Pmel T cells; FACS after re-stimulation): increased phosphorylation of 4EBP1
- total EIF2α and phosphorylated S6 ribosomal protein (Pmel T cells; FACS after re-stimulation): increased total levels of EIF2α and phosphorylated levels of S6 ribosomal protein
- overall protein translation (OPP incorporation) (Pmel T cells; upon re-stimulation with cognate antigen): significantly enhanced upregulation of overall protein translation
- Tet activity (Tet): decrease of Tet activity
- protective effect on H2O2-induced Golgi stress (GM130) (Jurkat cells): only observed in Jurkat cells expressing wildtype Prdx4
- loss of Prdx4 localization within the Golgi under prolonged oxidative stress [1]: loss of colocalization was mitigated
